Where two headings read alike, the source gives them in different places.

Results on 9 molecules are retold here after patent US8318769B2, “Substituted sulfonamide compounds” (Gruenethal GmbH, priority 2008, dated 2012).

Assay [1] addresses T1, human bradykinin 1 receptor (B1R) (Homo sapiens, UniProt P46663).
T1 construct: expressed in transfected cells
T1 sequence (P46663 1-353): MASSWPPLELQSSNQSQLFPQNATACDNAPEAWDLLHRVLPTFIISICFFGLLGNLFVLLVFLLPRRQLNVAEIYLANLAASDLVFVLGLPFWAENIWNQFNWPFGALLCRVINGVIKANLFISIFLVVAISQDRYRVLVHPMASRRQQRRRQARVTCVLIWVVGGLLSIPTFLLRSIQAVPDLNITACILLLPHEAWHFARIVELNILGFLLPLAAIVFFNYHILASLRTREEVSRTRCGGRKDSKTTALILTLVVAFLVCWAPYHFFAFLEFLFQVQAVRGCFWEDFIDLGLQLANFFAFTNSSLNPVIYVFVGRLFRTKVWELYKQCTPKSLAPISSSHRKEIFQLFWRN
As to the kind of experiment: FLIPR Ca2+ assay, B1R antagonism, human. The assay is classed as cell-based. Particulars: 10 μM test substance, CHO K1 cells with human B1R gene (hB1R cells), Lys-Des-Arg9-bradykinin at EC80, % inhibition compared with the maximum achievable inhibition; for inhibition at 10 µM: read-out: B1R antagonism, human [10 μM] % inhibition. In outline: (§1)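 CHO K1 cells stably expressing human or rat B1R, loaded with Fluo-4 and read in FLIPR (ex 488, em 540 nm, peak fluorescence). Test compound 10 μM preincubated 10-20 min, then EC80 agonist added (Lys-Des-Arg9-bradykinin for human, Des-Arg9-bradykinin for rat); % inhibition relative to maximum achievable inhibition.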

For assay [2], the target named is T2, bradykinin 1 receptor (B1R) of the rat (Rattus norvegicus, UniProt P97583).
T2 construct: expressed in transfected cells
T2 sequence (P97583 1-337): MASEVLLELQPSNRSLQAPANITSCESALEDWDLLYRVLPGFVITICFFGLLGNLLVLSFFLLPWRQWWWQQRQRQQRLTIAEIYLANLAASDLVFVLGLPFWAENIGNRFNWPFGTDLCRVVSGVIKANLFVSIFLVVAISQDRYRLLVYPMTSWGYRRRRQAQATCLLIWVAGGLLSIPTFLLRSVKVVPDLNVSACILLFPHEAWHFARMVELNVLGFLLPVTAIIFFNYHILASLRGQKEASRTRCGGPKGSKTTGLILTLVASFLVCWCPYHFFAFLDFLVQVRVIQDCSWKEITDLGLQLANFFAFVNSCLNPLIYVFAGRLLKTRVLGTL
As to the kind of experiment: FLIPR Ca2+ assay, B1R antagonism, rat. The assay is classed as cell-based. The settings on record: for B1R antagonism, rat [10 μM] % inhibition: 10 μM test substance. The method in brief:
as §1

Setting [3] is: CHO-K1, 10 μM test substance, CHO K1 cells with rat B1R gene (rB1R cells), Des-Arg9-bradykinin at EC80, % inhibition compared with the maximum achievable inhibition, read-out: B1R antagonism, rat [10 μM] % inhibition.
The mark [4] stands for this setting: CHO K1 cells with rat B1R gene (rB1R cells), Des-Arg9-bradykinin at EC80, % inhibition compared with the maximum achievable inhibition.

Take `COc1cc(C)c(S(=O)(=O)N2CCCCC2COCC(=O)N2CCC(OCCN3CCCCC3)(c3cccnc3)CC2)c(C)c1` (stereo not drawn) [Example 14, 2-((1-(4-methoxy-2,6-dimethylphenylsulfonyl)piperidin-2-yl)methoxy)-1-(4-(2-(piperidin-1-yl)ethoxy)-4-(pyridin-3-yl)piperidin-1-yl)ethanone]: the inhibition at 10 µM in assay [1] is 103%; in assay [2] (setting [3]) it was 102%.

As to `COc1cc(C)c(S(=O)(=O)N(C)CCOCC(=O)N2CCC(OCCN3CCCC3)(c3cccnc3)CC2)c(C)c1` [Example 80, 4-methoxy-N,2,6-trimethyl-N-[2-[2-oxo-2-[4-pyridin-3-yl-4-(2-pyrrolidin-1-yl-ethoxy)-piperidin-1-yl]-ethoxy]-ethyl]-benzenesulfonic acid amide], the “B1R antagonism, human [10 μM] % inhibition” value in assay [1] (10 µM) was found to be 100%. For the same molecule, the “B1R antagonism, rat [10 μM] % inhibition” value in assay [2] (setting [4]) amounted to 102%.

As for `COc1cc(C)c(S(=O)(=O)N2CCCC[C@H]2COCC(=O)N2CCC(OCCN3CCC3)(c3cccnc3)CC2)c(C)c1` [Example 61, 1-[4-[2-(azetidin-1-yl)-ethoxy]-4-pyridin-3-yl-piperidin-1-yl]-2-[[(2S)-1-[(4-methoxy-2,6-dimethyl-phenyl)sulfonyl]-piperidin-2-yl]-methoxy]-ethanone], the figures for the inhibition at 10 µM in assay [1] and in assay [2] (setting [3]) were 100% and 101%, respectively.

On to `O=C(COCC1CCc2ccccc2N1S(=O)(=O)c1ccc(Cl)c(Cl)c1)N1CCC(OCCN2CCCC2)(c2cccnc2)CC1` (stereo not drawn) [Example 24, 2-((1-(3,4-dichlorophenylsulfonyl)-1,2,3,4-tetrahydroquinolin-2-yl)methoxy)-1-(4-(pyridin-3-yl)-4-(2-(pyrrolidin-1-yl)ethoxy)piperidin-1-yl)ethanone], for which the inhibition at 10 µM in assay [1] is 69%; in assay [2] (setting [3]) it was 101%.

`COc1cc(C)c(S(=O)(=O)N2CCCCC2COCC(=O)N2CCC(OCCCN3CCCCC3)(c3cccnc3)CC2)c(C)c1` (stereo not drawn) [Example 17, 2-((1-(4-methoxy-2,6-dimethylphenylsulfonyl)piperidin-2-yl)methoxy)-1-(4-(3-(piperidin-1-yl)propoxy)-4-(pyridin-3-yl)piperidin-1-yl)ethanone]: the inhibition at 10 µM in assay [1] and in assay [2] (setting [3]) was 102% throughout.

As to `COc1cc(C)c(S(=O)(=O)N2CCCCC2CCCC(=O)N2CCC(OCCN3CCCC3)(c3cccnc3)CC2)c(C)c1` (stereo not drawn) [Example 2, 4-(1-(4-methoxy-2,6-dimethylphenylsulfonyl)piperidin-2-yl)-1-(4-(pyridin-3-yl)-4-(2-(pyrrolidin-1-yl)ethoxy)piperidin-1-yl)butan-1-one], the “B1R antagonism, human [10 μM] % inhibition” value in assay [1] (10 µM) is given as 97%. For the same molecule, the inhibition at 10 µM in assay [2] (CHO-K1, read-out: B1R antagonism, rat [10 μM] % inhibition) stood at 99%.

Consider `CN1CCN(CCCOC2(c3cccnc3)CCN(C(=O)CC3CCCCN3S(=O)(=O)c3cccc(C(F)(F)F)c3)CC2)CC1` (stereo not drawn) [Example 35, 1-(4-(3-(4-methylpiperazin-1-yl)propoxy)-4-(pyridin-3-yl)piperidin-1-yl)-2-(1-(3-(trifluoromethyl)phenylsulfonyl)piperidin-2-yl)ethanone], for which the inhibition at 10 µM in assay [1] was determined as 21%; in assay [2] (setting [3]), 97%.

Regarding `Cc1cc(S(=O)(=O)N2CCCCC2CCC(=O)N2CCC(OCCN3CCN(C)CC3)(c3cccnc3)CC2)c(C)cc1Cl` (stereo not drawn) [Example 31, 3-(1-(4-chloro-2,5-dimethylphenylsulfonyl)piperidin-2-yl)-1-(4-(2-(4-methylpiperazin-1-yl)ethoxy)-4-(pyridin-3-yl)piperidin-1-yl)propan-1-one], the inhibition at 10 µM in assay [1] was 85%; in assay [2] (setting [3]) it was 61%.

Consider `COc1cc(C)c(S(=O)(=O)N2CCCCC2CCCC(=O)N2CCC(OCCN3CCCC3)(c3ccncc3)CC2)c(C)c1` (stereo not drawn) [Example 91, 4-[1-[(4-methoxy-2,6-dimethyl-phenyl)sulfonyl]-piperidin-2-yl]-1-[4-pyridin-4-yl-4-(2-pyrrolidin-1-yl-ethoxy)-piperidin-1-yl]-butan-1-one], for which the “B1R antagonism, human [10 μM] % inhibition” value in assay [1] was determined as 100%. The “B1R antagonism, rat [10 μM] % inhibition” value in assay [2] (setting [4]) amounted to 103%.

As a reminder, the inhibition is the change of the read-out against control, counted positive when it falls.
